Assay results published in patent US6521635B1, “Inhibition of MXR transport by acridine derivatives” (priority 2000, dated 2003).

How the values were obtained:
[1] = tested on: S1-B1-20 Pgp-overexpressing cells; test: In vitro cytotoxicity assay (sulforhodamine B staining); assay type: cell-based, human; conditions: GF120918 at 1 μM, Pgp-expressing S1-B1-20 cells
Experimental: Reversal of resistance was determined in cytotoxicity assays using the sulforhodamine staining (Skehan et al. (1990) J. Natl. […] Briefly, cells were harvested and seeded at a density of 2000 cells/well for the colon cancer lines and 4000 cells/well for the breast cancer cell lines in flat-bottom 96-well plates. The cells were incubated for 24 h at 37° C. to allow attachment prior to addition of the drugs. […] Each concentration was tested in triplicate and the controls were done in replicates of eight. Results are representative of from three to six experiments. […] After incubation, the cells were fixed in TCA and stained with sulforhodamine B (SRB) solution (0.4% wt/vol in 1% acetic acid) (Sigma Chemical, St Louis, Mo.). Optical densities were read on a Bio-Rad plate reader (Hercules, Calif.) at an absorbance of 540 nm.

[2] = tested on: S1 parental cells (low endogenous level of Pgp); test: Rhodamine efflux assay (flow cytometry); assay type: cell-based, human
Experimental: (§1) The rhodamine and calcein efflux assays were performed as previously described with minor modifications (Lee et al. (1994) Mol. Pharmacol. 46: 627-638; Versantvoort et al. (1995) Int. J. Cancer 63: 855-862.) Suspensions of logarithmic phase cells were obtained from tissue culture flasks by trypsinization and transferred into round-bottom 96-well plates. […] After the efflux period, the cells were washed with DPBS and placed on ice. A FACSort flow cytometer (Becton Dickinson, San Jose, Calif.) with a 488-nm argon laser was used to analyze the samples. Rhodamine 123 or calcein fluorescence was collected after a 530 nm bandpass filter. A minimum of 10,000 events was collected per sample and the samples were gated on forward scatter versus side scatter to exclude clumps and debris; dead cells were excluded based on propidium iodide staining.
(§2) To provide confirmation, rhodamine efflux assays were performed. […] After an accumulation and efflux period, rhodamine fluorescence was quantitated by flow cytometric analysis. The results are depicted in FIG. 2. […] PSC 833, a cyclosporin-D analog, was used as a positive control for Pgp antagonism.

[3] = target: Pgp (Pgp-overexpressing S1-B1-20 cells) (Homo sapiens, UniProt P08183)
Chain of Pgp (Pgp-overexpressing S1-B1-20 cells) (P08183 whole entry): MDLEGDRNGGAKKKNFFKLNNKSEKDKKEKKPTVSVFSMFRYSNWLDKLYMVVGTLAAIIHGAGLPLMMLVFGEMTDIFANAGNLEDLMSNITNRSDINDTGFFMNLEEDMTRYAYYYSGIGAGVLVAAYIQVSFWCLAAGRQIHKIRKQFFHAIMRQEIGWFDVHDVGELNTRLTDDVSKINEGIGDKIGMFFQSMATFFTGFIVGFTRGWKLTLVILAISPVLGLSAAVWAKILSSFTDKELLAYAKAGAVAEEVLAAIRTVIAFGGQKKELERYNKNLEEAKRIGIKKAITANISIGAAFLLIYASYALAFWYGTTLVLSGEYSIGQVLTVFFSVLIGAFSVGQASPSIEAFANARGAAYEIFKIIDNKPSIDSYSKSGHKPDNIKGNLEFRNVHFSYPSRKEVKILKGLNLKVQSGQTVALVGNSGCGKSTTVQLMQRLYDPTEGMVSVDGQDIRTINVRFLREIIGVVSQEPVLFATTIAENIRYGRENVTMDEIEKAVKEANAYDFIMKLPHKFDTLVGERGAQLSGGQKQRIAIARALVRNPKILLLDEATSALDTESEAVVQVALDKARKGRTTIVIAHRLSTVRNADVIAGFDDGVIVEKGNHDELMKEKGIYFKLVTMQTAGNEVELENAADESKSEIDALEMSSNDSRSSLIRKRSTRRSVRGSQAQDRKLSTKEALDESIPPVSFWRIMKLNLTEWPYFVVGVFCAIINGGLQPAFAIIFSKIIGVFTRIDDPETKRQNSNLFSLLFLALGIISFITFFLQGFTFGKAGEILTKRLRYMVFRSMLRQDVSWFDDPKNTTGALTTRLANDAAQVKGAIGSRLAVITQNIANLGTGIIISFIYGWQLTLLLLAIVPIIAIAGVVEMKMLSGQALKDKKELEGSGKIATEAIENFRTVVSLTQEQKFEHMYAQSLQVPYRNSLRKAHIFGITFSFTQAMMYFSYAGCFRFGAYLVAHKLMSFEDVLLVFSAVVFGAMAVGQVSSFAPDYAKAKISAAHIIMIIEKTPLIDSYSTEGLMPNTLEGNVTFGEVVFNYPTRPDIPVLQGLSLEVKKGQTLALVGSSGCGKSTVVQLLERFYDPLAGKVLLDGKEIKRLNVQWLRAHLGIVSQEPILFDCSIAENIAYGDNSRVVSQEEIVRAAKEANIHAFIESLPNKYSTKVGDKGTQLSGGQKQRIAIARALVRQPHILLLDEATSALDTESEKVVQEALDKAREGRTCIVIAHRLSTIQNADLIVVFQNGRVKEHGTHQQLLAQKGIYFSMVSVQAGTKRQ
Experimental: as §1, §2

MRP (MCF-7/VP cells) = target: T1, MRP (MCF-7/VP cells) (Homo sapiens, UniProt P33527); test: Calcein efflux assay (FACS); assay type: cell-based; conditions: at 25 μM, MCF-7/VP cells (data not shown)
T1 construct: Calcein is readily effluxed in the MRP-overexpressing MCF-7/VP cells; endogenous in cells; host or cells: MCF-7/VP (maintained in 4 uM VP-16; provided by Dr. Ken Cowan)
T1 sequence (P33527 whole entry): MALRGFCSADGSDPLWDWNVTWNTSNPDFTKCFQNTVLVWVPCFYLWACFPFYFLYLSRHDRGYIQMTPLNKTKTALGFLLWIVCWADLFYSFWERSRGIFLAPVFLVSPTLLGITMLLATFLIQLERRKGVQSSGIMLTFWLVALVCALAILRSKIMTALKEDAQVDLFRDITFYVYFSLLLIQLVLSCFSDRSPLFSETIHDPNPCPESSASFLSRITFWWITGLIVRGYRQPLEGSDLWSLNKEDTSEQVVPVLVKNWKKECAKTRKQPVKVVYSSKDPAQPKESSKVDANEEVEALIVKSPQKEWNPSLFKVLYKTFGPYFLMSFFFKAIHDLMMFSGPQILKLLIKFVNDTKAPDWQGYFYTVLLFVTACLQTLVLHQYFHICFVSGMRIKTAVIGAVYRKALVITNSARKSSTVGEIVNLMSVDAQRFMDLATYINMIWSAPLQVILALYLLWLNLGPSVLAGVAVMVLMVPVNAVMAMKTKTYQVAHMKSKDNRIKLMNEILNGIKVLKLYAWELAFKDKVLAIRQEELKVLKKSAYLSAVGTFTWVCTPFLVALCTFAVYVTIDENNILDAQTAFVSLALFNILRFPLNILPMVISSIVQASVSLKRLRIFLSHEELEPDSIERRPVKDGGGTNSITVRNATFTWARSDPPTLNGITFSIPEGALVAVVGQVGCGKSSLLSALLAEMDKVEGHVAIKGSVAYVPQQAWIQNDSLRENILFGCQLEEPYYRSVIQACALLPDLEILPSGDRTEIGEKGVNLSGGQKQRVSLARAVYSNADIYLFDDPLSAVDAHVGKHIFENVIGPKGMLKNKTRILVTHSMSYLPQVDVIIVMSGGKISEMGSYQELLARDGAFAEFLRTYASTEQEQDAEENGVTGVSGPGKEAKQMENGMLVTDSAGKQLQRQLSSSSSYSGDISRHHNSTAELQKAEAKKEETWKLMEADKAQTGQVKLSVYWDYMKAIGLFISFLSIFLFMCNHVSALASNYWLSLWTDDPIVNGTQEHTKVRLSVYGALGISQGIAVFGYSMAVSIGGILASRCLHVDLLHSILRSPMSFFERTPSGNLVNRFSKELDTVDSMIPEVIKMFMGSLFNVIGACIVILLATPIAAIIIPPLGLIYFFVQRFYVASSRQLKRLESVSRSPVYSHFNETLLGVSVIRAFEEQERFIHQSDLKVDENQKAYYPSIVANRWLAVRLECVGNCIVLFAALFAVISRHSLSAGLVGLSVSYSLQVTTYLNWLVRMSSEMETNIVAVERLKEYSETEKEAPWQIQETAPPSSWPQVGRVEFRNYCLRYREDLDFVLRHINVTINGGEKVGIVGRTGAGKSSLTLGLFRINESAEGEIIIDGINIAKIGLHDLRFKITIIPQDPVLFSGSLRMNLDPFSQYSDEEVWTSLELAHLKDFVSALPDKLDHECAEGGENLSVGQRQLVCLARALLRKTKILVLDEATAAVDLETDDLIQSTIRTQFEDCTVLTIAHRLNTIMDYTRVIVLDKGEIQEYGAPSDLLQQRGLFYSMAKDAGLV
Experimental: as §1
Calcein AM can be used to detect both Pgp and MRP-mediated efflux. Calcein permeates the cell in neutral form as an acetomethoxyester, calcein AM. Esterase activity cleaves the AM group leaving calcein as a fluorescent organic anion.

patients = conditions: cited from earlier work
Pgp = Pgp (Homo sapiens, UniProt P08183); conditions: reported in literature; cited from earlier work
Chain of Pgp (P08183 whole entry): as the sequence (P08183 whole entry) above

concentration giving complete inhibition of rhodamine efflux [3]: 250 nM
lowest concentrations at which rhodamine 123 efflux was decreased [3]: 25 to 50 nM
reversal of MRP-mediated calcein efflux (MRP (MCF-7/VP cells)): only slight reversal
SMILES: COc1cc2c(cc1OC)CN(CCc1ccc(NC(=O)c3cccc4c(=O)c5cccc(OC)c5[nH]c34)cc1)CC2 [GF120918]
sensitization to mitoxantrone [1]: 31 fold
effect on rhodamine accumulation and efflux [2]: small increase in rhodamine accumulation and a decrease in efflux
toxicity in phase I clinical trials (patients): little toxicity
concentrations inhibiting Pgp-mediated efflux (Pgp): nanomolar concentrations
